Literature values, collected in US20250195551A1 (L4 BIO LLC, priority 2023, published 2025).

Molecular target: T1, purinergic P2X4 receptors (Homo sapiens, UniProt Q99571)
T1 sequence (Q99571 1-388): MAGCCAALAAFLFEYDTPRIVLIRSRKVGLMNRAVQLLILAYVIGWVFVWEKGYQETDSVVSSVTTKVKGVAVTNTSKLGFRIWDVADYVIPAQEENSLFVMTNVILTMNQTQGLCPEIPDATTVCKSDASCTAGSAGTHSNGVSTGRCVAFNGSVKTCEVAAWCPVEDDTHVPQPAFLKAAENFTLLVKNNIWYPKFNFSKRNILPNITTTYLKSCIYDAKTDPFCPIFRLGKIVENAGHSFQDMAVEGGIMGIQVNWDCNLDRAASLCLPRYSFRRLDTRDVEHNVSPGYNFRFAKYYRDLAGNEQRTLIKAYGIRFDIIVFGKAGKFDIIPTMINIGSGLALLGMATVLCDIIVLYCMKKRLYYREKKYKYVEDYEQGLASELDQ
Settings: interaction with purinergic P2X4 receptors in humans; cited from earlier work

## ivermectin
  EC50: ~250 nM
